We go through six molecules from patent publication US10933061B2 (Shepherd Therapeutics, Inc., priority 2017, dated 2021).

Molecules are shown by their SMILES. “And” between values parts separate entries of the source, which are not always exact repeats. Equal values may be shown once. Read-outs that look alike come from different tables or passages of the source.

Test [1] relates to SW-1271 small cell lung carcinoma cells. The test can be described thus: Chou-Talalay combination assay, Cell Titer Glo. The format is cell-based. As to conditions: 72 hour incubation. On the technique in general: Cellular ATP, detected with luciferase, serves as a proxy for viable cell number.
Protocol: (§1) Following a 72 hour incubation, cell viability was determined using Cell Titer Glo.
Test [2] concerns NCI-H295R adrenocortical carcinoma cells. The experiment in a line: Chou-Talalay combination assay, Cell Titer Glo. The format is cell-based. As to conditions: combination with pyrvinium pamoate, 72 hour incubation.
Protocol: as §1
The test system of test [3] is carcinoid tumor cell line STC-1. The experiment in a line: Chou-Talalay combination assay, Cell Titer Glo. Type of test: cell-based. As to conditions: combination with pyrvinium pamoate, 72 hour incubation.
Protocol: as §1
The test system of test [4] is SW13 adrenocortical carcinoma cells. The test can be described thus: Chou-Talalay combination assay, Cell Titer Glo. Type of test: cell-based. To be noted: combination with pyrvinium pamoate, 72 hour incubation.
Protocol: as §1
For test [5], the system named is DMS-114 small cell lung carcinoma cells. The experiment in a line: Chou-Talalay combination assay, Cell Titer Glo. The format is cell-based. As to conditions: 72 hour incubation.
Protocol: as §1
Test [6] deals with TC-32 Ewing's sarcoma cells. The experiment in a line: Chou-Talalay combination assay, Cell Titer Glo. Type of test: cell-based. To be noted: combination with pyrvinium pamoate, 72 hour incubation.
Protocol: as §1
In test [7] the test system is Colo-205 colorectal carcinoma cells. The test can be described thus: Chou-Talalay combination assay, Cell Titer Glo. The format is cell-based. To be noted: combination with pyrvinium pamoate, 72 hour incubation.
Protocol: as §1
Test [8] has as its system SK-N-AS neuroblastoma cells. The test can be described thus: Chou-Talalay combination assay, Cell Titer Glo. Type of test: cell-based. To be noted: SK-N-AS; combination with pyrvinium pamoate; 72 hour incubation.
Protocol: as §1
Test [9] deals with TC-71 Ewing's sarcoma cells. The experiment in a line: Chou-Talalay combination assay, Cell Titer Glo. Type of test: cell-based. To be noted: combination with pyrvinium pamoate, 72 hour incubation.
Protocol: as §1
Test [10] concerns HCT116 colorectal carcinoma cells. The test can be described thus: Chou-Talalay combination assay, Cell Titer Glo. Type of test: cell-based. To be noted: combination with pyrvinium pamoate, 72 hour incubation.
Protocol: as §1
In test [11] the test system is CHP-212 neuroblastoma cells. The experiment in a line: Chou-Talalay combination assay, Cell Titer Glo. Type of test: cell-based. As to conditions: combination with pyrvinium pamoate, 72 hour incubation.
Protocol: as §1
Test [12] has as its system SK-UT-1 leiomyosarcoma cells. The experiment in a line: Chou-Talalay combination assay, Cell Titer Glo. The format is cell-based. To be noted: 72 hour incubation.
Protocol: as §1
Test [13] concerns HepG2 hepatocellular carcinoma cells. The experiment in a line: Chou-Talalay combination assay, Cell Titer Glo. To be noted: combination with pyrvinium pamoate, 72 hour incubation.
Protocol: as §1
Test [14] concerns BxPC-3 pancreatic carcinoma cells. The test can be described thus: Chou-Talalay combination assay, Cell Titer Glo. As to conditions: combination with pyrvinium pamoate, 72 hour incubation.
Protocol: as §1
The subject of test [15] is SK-UT-1B leiomyosarcoma cells. The test can be described thus: Chou-Talalay combination assay, Cell Titer Glo. The format is cell-based. As to conditions: combination with pyrvinium pamoate, 72 hour incubation.
Protocol: as §1
In test [16] the test system is HepG2-C3A hepatocellular carcinoma cells. The experiment in a line: Chou-Talalay combination assay, Cell Titer Glo. As to conditions: combination with pyrvinium pamoate, 72 hour incubation.
Protocol: as §1
Test [17] deals with Hs766t pancreatic carcinoma cells. The test can be described thus: Chou-Talalay combination assay, Cell Titer Glo. To be noted: combination with pyrvinium pamoate, 72 hour incubation. Type of test: cell-based.
Protocol: as §1
Test [18] deals with TFK-1 cholangiocarcinoma cells. The experiment in a line: Chou-Talalay combination assay, Cell Titer Glo. Type of test: cell-based. As to conditions: combination with pyrvinium pamoate, 72 hour incubation.
Protocol: as §1
For test [19], the system named is SK-LMS-1 leiomyosarcoma cells. The test can be described thus: Chou-Talalay combination assay, Cell Titer Glo. The format is cell-based. As to conditions: combination with pyrvinium pamoate, 72 hour incubation.
Protocol: as §1
In a further test the test system is LO-68 mesothelioma cells. The test can be described thus: Chou-Talalay combination assay, Cell Titer Glo. The format is cell-based. To be noted: combination with pyrvinium pamoate, 72 hour incubation.
In a further test the test system is JU-77 mesothelioma cells. The experiment in a line: Chou-Talalay combination assay, Cell Titer Glo. The format is cell-based. As to conditions: combination with pyrvinium pamoate, 72 hour incubation.
Test [20] relates to CCC-5 cholangiocarcinoma cells. The test can be described thus: Chou-Talalay combination assay, Cell Titer Glo. Type of test: cell-based. To be noted: combination with pyrvinium pamoate, 72 hour incubation.
Protocol: as §1
Test [21] concerns Flo-1 esophageal carcinoma cells. The test can be described thus: Chou-Talalay combination assay, Cell Titer Glo. To be noted: combination with pyrvinium pamoate, 72 hour incubation. The format is cell-based.
Protocol: as §1
Test [22] relates to Kato-III gastric carcinoma cells. The test can be described thus: Chou-Talalay combination assay, Cell Titer Glo. The format is cell-based.
Protocol: as §1
The test system of test [23] is OE-33 esophageal carcinoma cells. The experiment in a line: Chou-Talalay combination assay, Cell Titer Glo. Type of test: cell-based. As to conditions: combination with pyrvinium pamoate, 72 hour incubation.
Protocol: as §1
Test [24] deals with SNU-16 gastric carcinoma cells. The experiment in a line: Chou-Talalay combination assay, Cell Titer Glo. The format is cell-based. As to conditions: combination with pyrvinium pamoate, 72 hour incubation.
Protocol: as §1
In test [25] the test system is TOV-112D ovarian carcinoma cells. The test can be described thus: Chou-Talalay combination assay, Cell Titer Glo. Type of test: cell-based. As to conditions: combination with pyrvinium pamoate, 72 hour incubation.
Protocol: as §1
For test [26], the system named is Rh30 rhabdomyosarcoma cells. The test can be described thus: Chou-Talalay combination assay, Cell Titer Glo. The format is cell-based. As to conditions: combination with pyrvinium pamoate, 72 hour incubation.
Protocol: as §1
Test [27] concerns Rh41 rhabdomyosarcoma cells. The experiment in a line: Chou-Talalay combination assay, Cell Titer Glo. As to conditions: combination with pyrvinium pamoate, 72 hour incubation. Type of test: cell-based.
Protocol: as §1
The subject of test [28] is GIST-1 gastrointestinal stromal tumor cells. The experiment in a line: Chou-Talalay combination assay, Cell Titer Glo. Type of test: cell-based. As to conditions: combination with pyrvinium pamoate, 72 hour incubation.
Protocol: as §1
Test [29] has as its system UM-Chor1 chordoma cell line. The experiment in a line: Chou-Talalay combination assay, Cell Titer Glo. The format is cell-based. As to conditions: combination with pyrvinium pamoate, 72 hour incubation.
Protocol: as §1
Test [30] has as its system COV362 ovarian carcinoma cells. The experiment in a line: Chou-Talalay combination assay, Cell Titer Glo. Type of test: cell-based. To be noted: combination with pyrvinium pamoate, 72 hour incubation.
Protocol: as §1
The subject of test [31] is PC12 pheochromocytoma/paraganglioma cells. As to conditions: combination with pyrvinium pamoate, 72 hour incubation.
Protocol: as §1
Test [32] deals with rare cancer tumor cell lines. The experiment in a line: Cell viability, panel of rare cancer tumor cell lines. Type of test: cell-based.
Protocol: In all cases, including those described below, the viable cells were determined using the CellTiter Glo® kit and a dose response curve to calculate the IC50 was generated using the PRISM software.
The mark [33] stands for this setting: combination with pyrvinium pamoate.

Protocol for JU-77 mesothelioma cells: as §1
Protocol for LO-68 mesothelioma cells: as §1

Take `COc1cc([C@@H]2c3cc4c(cc3[C@@H](O[C@@H]3O[C@@H]5CO[C@@H](C)O[C@H]5[C@H](O)[C@H]3O)[C@H]3COC(=O)[C@H]23)OCO4)cc(OC)c1O` [Etoposide]: the “Synergy with pyrvinium pamoate” value in test [1] and in [5] was “No” throughout. Moreover, the CI range in [2] is recorded as 0.717-0.864; in test [3] it was 0.281-0.794; in test [4], 0.487-0.623; in test [6] it was 0.593-0.875; in [7], 0.107-0.751; in test [8], 0.638-0.834. Besides, the CI range in test [9] is 0.677-0.883; in [10], 0.716-0.836; in test [11], 0.763-0.891.
On to `Nc1ccn([C@@H]2O[C@H](CO)[C@@H](O)C2(F)F)c(=O)n1` [Gemcitabine], for which the CI range result was “(0.118-0.888)” in [12] (setting [33]); 0.613-0.899 in test [13]; 0.417-0.851 in test [14]; 0.516-0.687 in test [15]; 0.201-0.566 in test [16]; 0.378-0.822 in test [17]. In addition, the CI range is recorded as 0.290-0.851 in test [18]; 0.311-0.774 in [19]; 0.047-0.871 in the test with LO-68 mesothelioma cells; 0.404-0.725 with JU-77 mesothelioma cells; 0.008-0.729 in test [20].
Consider `O=C1[O][Pt]2([NH][C@@H]3CCCC[C@H]3[NH]2)[O]C1=O` [Oxaliplatin], for which the CI range in test [21] is 0.558-0.871; in [13] it was 0.354-0.865; in test [22] it was “Yes- (0.384-0.781)”; in test [14], 0.254-0.802; in test [23], 0.447-0.703; in test [24], 0.083-0.831 and 0.089-0.851. Besides, the CI range is listed as 0.307-0.870 in test [16], 0.340-0.884 in test [17] and 0.375-0.889 in test [10].
Turning to `N.N.[Cl][Pt][Cl]` [Cisplatin], the CI range in test [25] is 0.439-0.845; in [1] (setting [33]) it was 0.568-0.895; in [2] it was 0.314-0.798; in test [3], 0.506-0.861; in [22] (Kato-III, combination with pyrvinium pamoate, 72 hour incubation) it was 0.386-0.842; in [4], 0.309-0.886. Besides, the CI range in test [14] is 0.459-0.775 and 0.472-0.882; in test [15], 0.407-0.742 and 0.337-0.809; in [5] (setting [33]) it was 0.572-0.883; in test [26] it was 0.693-0.877; in test [17] it was 0.458-0.875; in test [27], 0.130-0.874. Besides, the CI range in test [6] was 0.588-0.878; in [18] it was 0.058-0.361; in test [19], 0.014-0.783; in [28], 0.177-0.732; in [8], 0.130-0.882; in test [9], 0.329-0.832. Besides, the CI range in test [29] was 0.468-0.887; in [20], 0.326-0.892; in test [30], 0.443-0.859; in test [11], 0.694-0.756. For the same molecule, in [12], the “Synergy with pyrvinium pamoate” value is “No”.
On to `CN(C)/N=N/c1[nH]cnc1C(N)=O` [Dacarbazine], for which the CI range in test [31] was 0.550-0.818.
On to `Cc1cc(/C=C/c2ccc3cc(N(C)C)ccc3[n+]2C)c(C)n1-c1ccccc1` [pyrvinium pamoate, 3-carboxy-1-[(3-carboxy-2-oxidonaphthalen-1-yl)methyl]naphthalen-2-olate;2-[(E)-2-(2,5-dimethyl-1-phenylpyrrol-3-yl)ethenyl]-N,N,1-trimethylquinolin-1-ium-6-amine], for which the “growth of multiple rare cancer cell lines” value in [32] (FIG. 14) is “inhibits growth”. Moreover, the IC50 in [32] (several rare cancer tumor cell lines, 72 hours, read-out: IC50s ranging) lay within 2 to 1000 nM.
